Structures are written as SMILES.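 Assay format: 96-well plates, 48-hour exposure. The concentration for 50% growth inhibition is given as GI50.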 The source made the active and inactive calls. Cut-off read from the data, not from the text of the source: active = GI50 up to about 1.1 µM and inactive = higher. Bounds are passed on as bounds.

The record followed here is ChEMBL document CHEMBL1201862, “PubChem BioAssay data set” (2004).

Test systems include SK-OV-3; MDA-N; K562; HOP-62; SN12C; BT-549; 786-0; HL-60; MOLT-4; DU-145; NCI-H226; Hs-578T; SW-620; TK-10; SNB-19; SK-MEL-5; SK-MEL-28; HCT-116; OVCAR-3; CAKI-1.
What all share (assay): NCI-60 cell line screen, 48 h

For `Cc1c(Cl)c(S(N)(=O)=O)cc(S(N)(=O)=O)c1NC(=O)c1ccc(Cl)cc1`, the GI50 in the assay with SK-OV-3, with MDA-N, with K562, in the assay on HOP-62, in the assay on SN12C and in the assay on BT-549 was > 100 µM (inactive) in each case. Moreover, the GI50 in the assay with 786-0, in the assay with HL-60, in the assay on MOLT-4, in the assay with DU-145, in the assay on NCI-H226 and in the assay with Hs-578T was > 100 µM (inactive) each time. The GI50 with SW-620, with TK-10, with SNB-19, in the assay with SK-MEL-5, in the assay with SK-MEL-28 and in the assay with HCT-116 was > 100 µM (inactive) throughout. Besides, the GI50 with OVCAR-3 and in the assay on CAKI-1 was > 100 µM (inactive) throughout.
In the case of `CCC1(CC)C(=O)N(C(=O)c2ccc(Cl)cc2)N(C(=O)c2ccccc2Cl)C1=O`, the GI50 in the assay with SK-OV-3 was > 100 µM (inactive); with MDA-N, 39.7 µM (inactive); in the assay with K562, 45.7 µM (inactive); in the assay on HOP-62 it was 46 µM (inactive); with SN12C it was 45.1 µM (inactive); in the assay with BT-549, 67.9 µM (inactive). The GI50 in the assay on 786-0 was 56.8 µM (inactive); with HL-60, 37.7 µM (inactive); in the assay on MOLT-4, 20.6 µM (inactive); in the assay with DU-145, > 100 µM (inactive); with NCI-H226, 16.2 µM (inactive); in the assay on Hs-578T, 43.5 µM (inactive). Further, the GI50 in the assay on SW-620 is 29.4 µM (inactive); in the assay with TK-10 it was 31.2 µM (inactive); in the assay with SNB-19 it was 66.1 µM (inactive); in the assay with SK-MEL-5, 75 µM (inactive); with SK-MEL-28, 98.4 µM (inactive); with HCT-116 it was 31.6 µM (inactive). The GI50 was 27.1 µM (inactive) with OVCAR-3 and > 100 µM (inactive) in the assay on CAKI-1.
For `Cc1ccc(N2CN3OC(=O)N(c4ccccc4)[C@@]3(c3ccccc3)C2)cc1`, the GI50 is 40.6 µM (inactive) in the assay on SK-OV-3; 33.6 µM (inactive) in the assay on MDA-N; 22.3 µM (inactive) in the assay with K562; 36.1 µM (inactive) in the assay on HOP-62; 42.2 µM (inactive) in the assay with SN12C; 50.4 µM (inactive) in the assay with BT-549. The GI50 in the assay on 786-0 is 44.5 µM (inactive); in the assay on HL-60 it was 26.2 µM (inactive); in the assay with MOLT-4 it was 35.1 µM (inactive); in the assay on DU-145, 48.4 µM (inactive); with NCI-H226 it was 27 µM (inactive); in the assay with Hs-578T, 87.9 µM (inactive). Also, the GI50 in the assay on SW-620 was 80 µM (inactive); in the assay with TK-10, 50.5 µM (inactive); in the assay with SNB-19, 92 µM (inactive); in the assay with SK-MEL-5, 31.3 µM (inactive); with SK-MEL-28, > 100 µM (inactive); in the assay with HCT-116, 29.2 µM (inactive). Moreover, the results for the GI50 with OVCAR-3 and in the assay with CAKI-1 were 19.4 µM (inactive) and 33.3 µM (inactive), respectively.
Regarding `COc1ccc(NC(=O)C(C#N)=C(SC)SC)cc1`, the GI50 in the assay with SK-OV-3, with MDA-N, in the assay with K562, in the assay with HOP-62, in the assay on SN12C and with BT-549 was > 100 µM (inactive) in each case. In addition, the GI50 is > 100 µM (inactive) in the assay with 786-0; 75.3 µM (inactive) with HL-60; > 100 µM (inactive) in the assay with MOLT-4; > 100 µM (inactive) in the assay on DU-145; > 100 µM (inactive) in the assay on NCI-H226; > 100 µM (inactive) in the assay on Hs-578T. The GI50 in the assay on SW-620, in the assay with TK-10, in the assay with SNB-19, in the assay with SK-MEL-5, in the assay with SK-MEL-28 and with HCT-116 was > 100 µM (inactive) in each case. Further, the GI50 in the assay on OVCAR-3 is > 100 µM (inactive); in the assay on CAKI-1 it was 50.5 µM (inactive).
`Cc1cc(C)c2c(=O)n(CN3CCN(c4ccccc4)CC3)sc2n1`: the GI50 is > 100 µM (inactive) with SK-OV-3; 23.7 µM (inactive) in the assay with MDA-N; 30 µM (inactive) in the assay with K562; 34.1 µM (inactive) in the assay on HOP-62; 27 µM (inactive) with SN12C; 63.2 µM (inactive) in the assay with BT-549. Moreover, the GI50 in the assay with 786-0 was 16.8 µM (inactive); with HL-60, 9.71 µM (inactive); in the assay with MOLT-4, 20.1 µM (inactive); with DU-145, 22.2 µM (inactive); in the assay on NCI-H226, > 100 µM (inactive); in the assay on Hs-578T, 70.1 µM (inactive). Further, the GI50 in the assay with SW-620 was 29.2 µM (inactive); in the assay with TK-10, 49.5 µM (inactive); in the assay with SNB-19 it was > 100 µM (inactive); with SK-MEL-5, 28.3 µM (inactive); in the assay with SK-MEL-28, 36.6 µM (inactive); with HCT-116, 17.7 µM (inactive). In addition, the results for the GI50 with OVCAR-3 and in the assay with CAKI-1 were 36.6 µM (inactive) and 21 µM (inactive), respectively.
In the case of `O=C(c1ccccc1)c1c(-c2ccccc2)[nH]n(-c2ccc([N+](=O)[O-])cc2)c(=O)c1=O`, the GI50 with SK-OV-3 was 36.9 µM (inactive); in the assay with MDA-N, > 100 µM (inactive); with K562 it was 41.5 µM (inactive); in the assay with HOP-62, > 100 µM (inactive); with SN12C, 57.3 µM (inactive); in the assay on BT-549 it was 27.6 µM (inactive). The GI50 in the assay with 786-0 was > 100 µM (inactive); with HL-60, > 100 µM (inactive); in the assay on MOLT-4, 37.2 µM (inactive); in the assay with DU-145 it was > 100 µM (inactive); with NCI-H226, 39.7 µM (inactive); in the assay on Hs-578T, 0.504 µM (active). For the same molecule, the GI50 in the assay with SW-620 was 42.6 µM (inactive); in the assay on TK-10, 91.8 µM (inactive); with SNB-19, 6.47 µM (inactive); in the assay with SK-MEL-5, > 100 µM (inactive); with SK-MEL-28, 21 µM (inactive); in the assay with HCT-116, 53.2 µM (inactive). Further, the GI50 in the assay on OVCAR-3 was 56.2 µM (inactive); in the assay with CAKI-1, 87.3 µM (inactive).
For `COC(=O)CCc1cc(O)c2c(c1)C(C(=O)OC)C(c1ccc(O)c(O)c1)O2` (stereo not given), the GI50 with SK-OV-3 is 33.6 µM (inactive); in the assay on MDA-N, 1.9 µM (inactive); in the assay with K562, 2.61 µM (inactive); with HOP-62, 15.1 µM (inactive); in the assay on SN12C, 21.9 µM (inactive); in the assay with BT-549, 12.5 µM (inactive). In addition, the GI50 is 26.1 µM (inactive) in the assay with 786-0; 2.55 µM (inactive) in the assay with HL-60; 5.09 µM (inactive) in the assay with MOLT-4; > 41.9 µM (inactive) with DU-145; 26.4 µM (inactive) with NCI-H226; 25.2 µM (inactive) in the assay on Hs-578T. Further, the GI50 with SW-620 is 6.17 µM (inactive); in the assay with TK-10, 53.1 µM (inactive); in the assay with SNB-19, 11.1 µM (inactive); in the assay with SK-MEL-5, 4.06 µM (inactive); in the assay on SK-MEL-28 it was 8.93 µM (inactive); with HCT-116, 7.19 µM (inactive). For the same molecule, the results for the GI50 with OVCAR-3 and in the assay on CAKI-1 were 3.71 µM (inactive) and 26.6 µM (inactive), respectively.
With `COc1ccc2cc(CNCCCCCCNCc3ccc4cc(OC)ccc4c3)ccc2c1`, the GI50 with SK-OV-3 is 1.85 µM (inactive); in the assay with MDA-N, 0.183 µM (active); with K562, 0.0897 µM (active); in the assay on HOP-62, 1.64 µM (inactive); with SN12C it was 1.33 µM (inactive); in the assay on BT-549, 1.72 µM (inactive). Also, the GI50 in the assay on 786-0 was 0.902 µM (active); with HL-60 it was 0.181 µM (active); in the assay with MOLT-4, 0.205 µM (active); with DU-145, 1.58 µM (inactive); with NCI-H226, 1.8 µM (inactive); with Hs-578T, 1.75 µM (inactive). Moreover, the GI50 in the assay with SW-620 was 0.182 µM (active); in the assay with TK-10, 1.8 µM (inactive); with SNB-19, 0.785 µM (active); in the assay with SK-MEL-5, 1.33 µM (inactive); in the assay with SK-MEL-28, 0.471 µM (active); with HCT-116, 0.176 µM (active). Moreover, the GI50 with OVCAR-3 is 0.575 µM (active); in the assay with CAKI-1 it was 1.38 µM (inactive).
`COC(=O)[C@]12CC[C@H]3CN(C(=O)OCc4ccccc4)[C@H]([C@H]31)[C@H](c1ccccc1)N2`: the GI50 in the assay with SK-OV-3 was > 100 µM (inactive); in the assay on MDA-N, 57.3 µM (inactive); in the assay on K562, 58.1 µM (inactive); in the assay on HOP-62, > 100 µM (inactive); in the assay with SN12C, > 100 µM (inactive); in the assay with BT-549 it was 85.5 µM (inactive). Also, the GI50 was > 100 µM (inactive) in the assay on 786-0; 39.6 µM (inactive) with HL-60; 33 µM (inactive) with MOLT-4; > 100 µM (inactive) with DU-145; 86.7 µM (inactive) in the assay on NCI-H226; > 100 µM (inactive) with Hs-578T. Further, the GI50 in the assay on SW-620 is > 100 µM (inactive); in the assay on TK-10 it was > 100 µM (inactive); in the assay with SNB-19, > 100 µM (inactive); in the assay with SK-MEL-5 it was 22.9 µM (inactive); with SK-MEL-28 it was > 100 µM (inactive); in the assay on HCT-116, 65.3 µM (inactive). Moreover, the GI50 with OVCAR-3 was 74.1 µM (inactive); in the assay with CAKI-1 it was 70.6 µM (inactive).
In the case of `NC(=O)c1[nH]nc(C2OC(CO)C(O)C2O)c1O` (stereo not given), the GI50 was 84.3 µM (inactive) in the assay on SK-OV-3; 3.39 µM (inactive) in the assay on MDA-N; 0.5 µM (active) with K562; 2.68 µM (inactive) in the assay on HOP-62; 3.18 µM (inactive) with SN12C; 182 µM (inactive) with BT-549. Also, the GI50 is 0.5 µM (active) in the assay with 786-0; 0.724 µM (active) in the assay on HL-60; 0.561 µM (active) in the assay with MOLT-4; 0.5 µM (active) in the assay with DU-145; 181 µM (inactive) in the assay with NCI-H226; 94 µM (inactive) in the assay with Hs-578T. Also, the GI50 was 0.55 µM (active) in the assay with SW-620; 91.6 µM (inactive) in the assay with TK-10; 2.6 µM (inactive) in the assay with SNB-19; 64.3 µM (inactive) with SK-MEL-5; 328 µM (inactive) with SK-MEL-28; 0.548 µM (active) in the assay with HCT-116. The GI50 with OVCAR-3 is 19.6 µM (inactive); in the assay with CAKI-1, 0.689 µM (active).
